Laboratory results taken from patent US8071768B2, “Alkylquinoline and alkylquinazoline kinase modulators” (Janssen Pharmaceutica, N.V., priority 2005, dated 2011).

Each molecule was assayed against T1, TrkB (Homo sapiens, UniProt Q16620) (assay: Trk B Fluorescence Polarization Kinase Assay). Settings: uncertainty ±10%.
T1 construct: purchased Upstate 14-507M
Type: biochemical
Method: Trk B Fluorescence Polarization Kinase Assay (TrkB IC50 Data)
The compounds of the present invention are also specific inhibitors of TrkB. Selection of preferred compounds of Formula I for use as TrkB inhibitors was performed in the following manner. The TrkB assay utilized the fluorescein-labeled phosphopeptide and the anti-phosphotyrosine antibody included in the Panvera Phospho-Tyrosine Kinase Kit (Green) supplied by Invitrogen. When TrkB phosphorylated poly Glu4Tyr, the fluorescein-labeled phosphopeptide was displaced from the anti-phosphotyrosine antibody by the phosphorylated poly Glu4Tyr, thus decreasing the FP value. The TrkB kinase reaction was incubated at room temperature for 30 minutes under the following conditions: 50 nM TrkB (Upstate, catalog # 14-507M), 20 ug/mL poly Glu4Tyr, 150 uM ATP, 5 mM MgCl2, 1% compound in DMSO. The kinase reaction was stopped with the addition of EDTA. The fluorescein-labeled phosphopeptide and the anti-phosphotyrosine antibody were added and incubated for 30 minutes at room temperature. Data points were an average of triplicate samples. Inhibition and IC50 data analysis were done with GraphPad Prism using a non-linear regression fit with a multiparamater, sigmoidal dose-response (variable slope) equation.

T1 sequence (Q16620 32-822): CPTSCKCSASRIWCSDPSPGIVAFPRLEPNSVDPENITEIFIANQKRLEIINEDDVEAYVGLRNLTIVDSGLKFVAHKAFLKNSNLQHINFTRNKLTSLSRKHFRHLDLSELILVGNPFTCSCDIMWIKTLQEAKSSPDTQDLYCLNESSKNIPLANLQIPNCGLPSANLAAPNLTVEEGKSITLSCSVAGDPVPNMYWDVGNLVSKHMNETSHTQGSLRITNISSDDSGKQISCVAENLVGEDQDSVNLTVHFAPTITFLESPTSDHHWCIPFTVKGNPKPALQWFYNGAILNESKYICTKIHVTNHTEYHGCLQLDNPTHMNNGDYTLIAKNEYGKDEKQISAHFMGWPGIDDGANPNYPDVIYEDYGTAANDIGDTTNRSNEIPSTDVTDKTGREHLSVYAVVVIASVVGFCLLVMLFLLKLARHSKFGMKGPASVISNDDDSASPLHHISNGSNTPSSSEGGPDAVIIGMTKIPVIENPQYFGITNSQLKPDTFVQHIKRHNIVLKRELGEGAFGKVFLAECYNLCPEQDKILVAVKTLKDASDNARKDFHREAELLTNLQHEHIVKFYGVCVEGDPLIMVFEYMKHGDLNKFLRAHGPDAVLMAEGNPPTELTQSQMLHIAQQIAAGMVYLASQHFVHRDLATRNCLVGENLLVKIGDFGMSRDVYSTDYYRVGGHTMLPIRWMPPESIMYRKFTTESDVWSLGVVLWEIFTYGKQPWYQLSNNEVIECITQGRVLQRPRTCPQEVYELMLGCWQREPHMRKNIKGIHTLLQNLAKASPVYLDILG

IC50 [µM]	Structure (SMILES)
6.2	COc1cc2ncnc(C3CCN(C(=O)Nc4ccc(I)cc4)CC3)c2cc1OC [Compound 2, 4-(6,7-Dimethoxy-quinazolin-4-yl)-piperidine-1-carboxylic acid (4-iodo-phenyl)-amide]
> 42	COc1cc2ncnc(C3CCN(C(=O)Nc4ccc(-n5ccnc5)cc4)CC3)c2cc1OC [Compound 3, 4-(6,7-Dimethoxy-quinazolin-4-yl)-piperidine-1-carboxylic acid (4-imidazol-1-yl-phenyl)-amide]
0.5	COc1cc2ncnc(C3CCN(CC(=O)Nc4ccc(C(C)C)cc4)CC3)c2cc1OC [Compound 9, 2-[4-(6,7-Dimethoxy-quinazolin-4-yl)-piperidin-1-yl]-N-(4-isopropyl-phenyl)-acetamide]
1	COc1cc2ncnc(C3CCN(CC(=O)Nc4ccc(OC(C)C)cc4)CC3)c2cc1OC [Compound 10, 2-[4-(6,7-Dimethoxy-quinazolin-4-yl)-piperidin-1-yl]-N-(4-isopropoxy-phenyl)-acetamide]
2.7	COc1cc2ncnc(C3CCN(C(=O)Nc4ccc(N5CCCCC5)cc4)CC3)c2cc1OC [Compound 19, 4-(6,7-Dimethoxy-quinazolin-4-yl)-piperidine-1-carboxylic acid (4-piperidin-1-yl-phenyl)-amide]
0.6	COc1cc2ncnc(C3CCN(C(=O)Nc4ccc(C5CCCCC5)cc4)CC3)c2cc1OC [Compound 21, 4-(6,7-Dimethoxy-quinazolin-4-yl)-piperidine-1-carboxylic acid (4-cyclohexyl-phenyl)-amide]
17.7	COc1cc2ncnc(C3CCN(C(=O)Nc4ccc(CO)cc4)CC3)c2cc1OC [Compound 22, 4-(6,7-Dimethoxy-quinazolin-4-yl)-piperidine-1-carboxylic acid (4-hydroxymethyl-phenyl)-amide]
13.3	COc1cc2ncnc(C3CCN(C(=O)Nc4ccc5[nH]ccc5c4)CC3)c2cc1OC [Compound 23, 4-(6,7-Dimethoxy-quinazolin-4-yl)-piperidine-1-carboxylic acid (1H-indol-5-yl)-amide]
35	COc1cc2ncnc(C3CCN(C(=O)Nc4ccc5ncsc5c4)CC3)c2cc1OC [Compound 24, 4-(6,7-Dimethoxy-quinazolin-4-yl)-piperidine-1-carboxylic acid benzothiazol-6-ylamide]
> 42	COc1cc2ncnc(C3CCN(C(=O)Nc4ccc(NC(C)=O)cc4)CC3)c2cc1OC [Compound 25, 4-(6,7-Dimethoxy-quinazolin-4-yl)-piperidine-1-carboxylic acid (4-acetylamino-phenyl)-amide]
9.4	COc1cc2ncnc(C3CCN(C(=O)Nc4ccc(N(C)C)cc4)CC3)c2cc1OC [Compound 26, 4-(6,7-Dimethoxy-quinazolin-4-yl)-piperidine-1-carboxylic acid (4-dimethylamino-phenyl)-amide]
9.4	COc1cc2ncnc(C3CCN(C(=O)Nc4ccc5c(c4)CCO5)CC3)c2cc1OC [Compound 27, 4-(6,7-Dimethoxy-quinazolin-4-yl)-piperidine-1-carboxylic acid (2,3-dihydro-benzofuran-5-yl)-amide]
0.1	COc1cc2ncnc(C3CCN(C(=O)Cc4ccc(C(C)C)cc4)CC3)c2cc1OC [Compound 28, 1-[4-(6,7-Dimethoxy-quinazolin-4-yl)-piperidin-1-yl]-2-(4-isopropyl-phenyl)-ethanone]
> 42	COCCOc1ccc(NC(=O)N2CCC(c3ncnc4cc(OC)c(OC)cc34)CC2)cc1 [Compound 40, 4-(6,7-Dimethoxy-quinazolin-4-yl)-piperidine-1-carboxylic acid [4-(2-methoxy-ethoxy)-phenyl]-amide]
11.7	COc1ccc(NC(=O)N2CCC(c3ncnc4cc(OC)c(OC)cc34)CC2)cc1 [Compound 41, 4-(6,7-Dimethoxy-quinazolin-4-yl)-piperidine-1-carboxylic acid (4-methoxy-phenyl)-amide]
0.8	CCCCc1ccc(NC(=O)N2CCC(c3ncnc4cc(OC)c(OC)cc34)CC2)cc1 [Compound 43, 4-(6,7-Dimethoxy-quinazolin-4-yl)-piperidine-1-carboxylic acid (4-butyl-phenyl)-amide]

The next lines start with the molecule.

Structure (SMILES)	IC50 [µM]
CC(C)c1ccc(NC(=O)N2CCC(c3ccnc4ccccc34)CC2)cc1 [Compound 5, 4-Quinolin-4-yl-piperidine-1-carboxylic acid (4-isopropyl-phenyl)-amide]	0.7
CC(C)Oc1ccc(NC(=O)N2CCC(c3ccnc4ccccc34)CC2)cc1 [Compound 6, 4-Quinolin-4-yl-piperidine-1-carboxylic acid (4-isopropoxy-phenyl)-amide]	0.8
CC(C)c1ccc(NC(=O)N2CCC(c3ncnc4ccccc34)CC2)cc1 [Compound 7, 4-Quinazolin-4-yl-piperidine-1-carboxylic acid (4-isopropyl-phenyl)-amide]	3.3
CC(C)Oc1ccc(NC(=O)N2CCC(c3ncnc4ccccc34)CC2)cc1 [Compound 8, 4-Quinazolin-4-yl-piperidine-1-carboxylic acid (4-isopropoxy-phenyl)-amide]	2.4
CC(C)Oc1ccc(NC(=O)N2CCC(c3ncnc4ccc(I)cc34)CC2)cc1 [Compound 11, 4-(6-Iodo-quinazolin-4-yl)-piperidine-1-carboxylic acid (4-isopropoxy-phenyl)-amide]	0.2
CC(C)Oc1ccc(NC(=O)N2CCC(c3ncnc4ccc(C#CCO)cc34)CC2)cc1 [Compound 12, 4-[6-(3-Hydroxy-prop-1-ynyl)-quinazolin-4-yl]-piperidine-1-carboxylic acid (4-isopropoxy-phenyl)-amide]	0.5
CCN(CC)CC#Cc1ccc2ncnc(C3CCN(C(=O)Nc4ccc(OC(C)C)cc4)CC3)c2c1 [Compound 13, 4-[6-(3-Diethylamino-prop-1-ynyl)-quinazolin-4-yl]-piperidine-1-carboxylic acid (4-isopropoxy-phenyl)-amide]	1.3
CC(C)Oc1ccc(NC(=O)N2CCC(c3ncnc4ccc(C#CCN5CCCCC5)cc34)CC2)cc1 [Compound 14, 4-[6-(3-Piperidin-1-yl-prop-1-ynyl)-quinazolin-4-yl]-piperidine-1-carboxylic acid (4-isopropoxy-phenyl)-amide]	0.3
CC(C)Oc1ccc(NC(=O)N2CCC(c3ncnc4ccc(C#CCN5CCOCC5)cc34)CC2)cc1 [Compound 15, 4-[6-(3-Morpholin-4-yl-prop-1-ynyl)-quinazolin-4-yl]-piperidine-1-carboxylic acid (4-isopropoxy-phenyl)-amide]	0.8
CC(C)c1ccc(NC(=O)CN2CCC(c3ncnc4ccccc34)CC2)cc1 [Compound 16, N-(4-Isopropyl-phenyl)-2-(4-quinazolin-4-yl-piperidin-1-yl)-acetamide]	2.6
CC(C)Oc1ccc(NC(=O)N2CCC(c3ncnc4cc(Cl)ccc34)CC2)cc1 [Compound 29, 4-(7-Chloro-quinazolin-4-yl)-piperidine-1-carboxylic acid (4-isopropoxy-phenyl)-amide]	0.5
CC(C)c1ccc(NC(=O)N2CCC(c3ncnc4cc(Cl)ccc34)CC2)cc1 [Compound 30, 4-(7-Chloro-quinazolin-4-yl)-piperidine-1-carboxylic acid (4-isopropyl-phenyl)-amide]	0.7
COc1ccc2c(C3CCN(C(=O)Nc4ccc(OC(C)C)cc4)CC3)ncnc2c1 [Compound 31, 4-(7-Methoxy-quinazolin-4-yl)-piperidine-1-carboxylic acid (4-isopropoxy-phenyl)-amide]	0.4
COc1ccc2c(C3CCN(C(=O)Nc4ccc(C(C)C)cc4)CC3)ncnc2c1 [Compound 32, 4-(7-Methoxy-quinazolin-4-yl)-piperidine-1-carboxylic acid (4-isopropyl-phenyl)-amide]	0.5
CC(C)Oc1ccc(NC(=O)N2CCC(c3ncnc4cc(OCCCN5CCCCC5)ccc34)CC2)cc1 [Compound 33, 4-(7-(3-Piperidin-1-yl-propoxy)-quinazolin-4-yl)-piperidine-1-carboxylic acid (4-isopropoxy-phenyl)-amide]	0.9
CC(C)Oc1ccc(NC(=O)N2CCC(c3ncnc4cc(OCCN5CCCCC5)ccc34)CC2)cc1 [Compound 34, 4-(7-(2-Piperindin-1-yl-ethoxy)-quinazolin-4-yl)-piperidine-1-carboxylic acid (4-isopropoxy-phenyl)-amide]	2.8
CCN(CC)CCOc1ccc2c(C3CCN(C(=O)Nc4ccc(OC(C)C)cc4)CC3)ncnc2c1 [Compound 35, 4-[7-(2-Diethylamino-ethoxy)-quinazolin-4-yl)-piperidine-1-carboxylic acid (4-isopropoxy-phenyl)-amide]	1.5
CCN(CC)CCCOc1ccc2c(C3CCN(C(=O)Nc4ccc(OC(C)C)cc4)CC3)ncnc2c1 [Compound 36, 4-[7-(3-Diethylamino-propoxy)-quinazolin-4-yl)-piperidine-1-carboxylic acid (4-isopropoxy-phenyl)-amide]	0.6
CC(C)Oc1ccc(NC(=O)N2CCC(c3ncnc4cc(OCCN5CCOCC5)ccc34)CC2)cc1 [Compound 37]	0.7
CC(C)Oc1ccc(NC(=O)N2CCC(c3ncnc4cc(OCCCN5CCOCC5)ccc34)CC2)cc1 [Compound 38]	0.1
COc1cc2ncnc(C3CCN(C(=O)NC4CCCCC4)CC3)c2cc1OC [Compound 42, 4-(6,7-Dimethoxy-quinazolin-4-yl)-piperidine-1-carboxylic acid cyclohexylamide]	28.7
